In data set [1] the test system is proximal convoluted tubule cells. Nature of the data set: Renal cell proliferation post gentamycin-induced AKI in zebrafish larvae. The format is in vivo. Conditions: 4 μM added 2 days post injection of gentamicin, EdU at 5 days post injection. As to the method:
FIG. 43A is a graph showing the results of an AKI model using gentamycin-induced injury. AKI is generated as per a recent publication, Cianciolo Cosenitino, C., et al. ((2010) Intravenous microinjections of zebrafish larvae to study acute kidney injury. JoVE August 4 (42), pii: 2079. doi: 10.3791/2079). Four micromolar m4PTB (UPHD-00025) was added to the zebrafish E3 media in 0.5% DMSO at 2 days post injection of gentamicin and the larvae are scored daily for four days (6 days post injection) as alive or dead, with the final data tallied on day 6 post injection FIG. 43B.
Proliferation of renal cells was examined post AKI for m4PTB in zebrafish larvae (FIG. 44). AKI is generated as above with gentamycin, essentially as described in Example 11. Four μM m4PTB was added 2 days post injection of gentamicin. Zebrafish larvae at 5 days post injection were treated for 1 hour with the thymidine analogue EdU (10 milimolar), which incorporates into dividing (proliferating cells) while the larvae are in the zebrafish E3 media. The larvae where then fixed and processed for histology to count the number of proliferating cells in the proximal convulted tubule (as marked by the antibody 3G8). The number of proliferating cells was divided by the total number of cells in the proximal convoluted tubule to generate the percent of proliferation also known as the proliferation index as shown in FIG. 44.

The subject of a further data set is renal progenitor cells. Nature of the data set: In situ hybridization for lhx1a expression in 10-somite embryos (renal progenitor cell expansion). On Lhx1a expansion caused by analog treatment, 3 μM: key: effective (+); partially effective (+/−); ineffective (−); Analogs that killed all embryos at a given concentration before reaching 10 somites are listed as XX. On Lhx1a expansion caused by analog treatment, 800 nM: key: effective (+); partially effective (+/−); ineffective (−); Analogs that killed all embryos at a given concentration before reaching 10 somites are listed as XX. Type of data set: in vivo. The procedure, abridged: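 Zebrafish embryos treated with compound, then colorimetric whole-mount in situ hybridization (65° C) for lhx1a mRNA at 10 somites. Embryos with expanded kidney field counted manually as percent of total. EC50 taken as 50% point of percent-expansion trendline; compounds also classed effective, partial or ineffective versus PTBA at matched concentration.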

For a further data set, the system named is Acetylated Histone H3 K9. The experiment in a line: Renal histone acetylation after single S/C injection in CD1 mice. Type of data set: in vivo, mouse. Conditions: 3.4 mg/kg single SC injection, 24 hours. As to the method: PTBA analogs are used at a dose range determined from comparative dose efficacy with m4PTB in the secondary zebrafish screen. […] Preliminary studies compared the effect of Trichostatin A (an established, but toxic HDACi) at an effective dose in the zebrafish screen ([…]) with an equivalent dose of m4PTB (0.8 mM), and then ×2 and ×4 dose increments (molar concentration in vivo based on estimate uniform distribution relative to body mass of water). […] Studies may be performed on 3 mice/group.

The subject of the next data set is zebrafish embryos. The experiment in a line: Phenotypic screen for edema and survival in zebrafish larvae at 72 hpf. The following applies: number of larvae (of 36); 3 μM from 2 hpf, scored at 72 hpf. The procedure, abridged: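 Embryos (5/well in primary screen; 12–30 per group otherwise) exposed from 2 hpf in E3 medium with 0.5% DMSO, 10 μM in screen or stated concentrations, 28.5 °C for 70 h. At 72 hpf, edema scored by phenotype classification (dominant phenotype in ≥4/5 embryos in screen); survival vs 0 μM by two-tailed Fisher's exact test (p<0.05).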

“Also recorded” adds a separate entry of the source. Like-named read-outs stand apart in the source and are kept apart here.

The EC50 is the concentration giving half of the maximal effect. High values mean lower potency in that assay, low ones higher potency in that assay. As to `COC(=O)CCCSc1ccccc1` [UPHD-00025, methyl 4-(phenylsulfanyl)butanoate (m4PTB)], in data set [1], the “renal cell proliferation (proliferation index)” value is “significantly increased”. Moreover, in the data set with renal progenitor cells (800 nM from 2 hpf, 10-somite embryos), the “Lhx1a expansion caused by analog treatment, 800 nM” value was “+/−”. Further, the “Lhx1a expansion caused by analog treatment, 1.5 μM” value with renal progenitor cells (1.5 μM from 2 hpf, 10-somite embryos) is “+”. Besides, the “Lhx1a expansion caused by analog treatment, 3 μM” value with renal progenitor cells (3 μM from 2 hpf, 10-somite embryos) is “+”. Also, in the data set with renal progenitor cells (Danio rerio, 1.5 μM from 2 hpf, 10-somite embryos, read-out: lhx1a expansion, percent of treated embryos), the responders at 1.5 µM worked out at 89%. Also, the responders at 3 µM in the data set on renal progenitor cells (Danio rerio, 3 μM from 2 hpf, 10-somite embryos, read-out: lhx1a expansion, percent of treated embryos) amounted to 100%. For the same compound, the responders at 0.2 µM with renal progenitor cells (Danio rerio, percent of embryos with expanded kidney field, 200 nM, read-out: Expansion of Cells (including repeats* and recounts**) 200 nM) was found to be 33%. The responders at 1.5 µM with renal progenitor cells (Danio rerio, percent of embryos with expanded kidney field, 1.5 μM, read-out: Expansion of Cells (including repeats* and recounts**) 1.5 μM) is 89%. Further, the responders at 3 µM in the data set with renal progenitor cells (Danio rerio, percent of embryos with expanded kidney field, 3 μM, read-out: Expansion of Cells (including repeats* and recounts**) 3 μM) amounted to 97%. Further, in the data set with renal progenitor cells (Danio rerio, first pass EC50 from percent expansion (Excel trendline), average where several experiments), a half-maximal effect (EC50) was put at 432 nM. In addition, the “renal Ac-H3 K9 induction” value with Acetylated Histone H3 K9 is on record as “maximal expression of Ac—H3 K9; also recorded: maximal induction of H3K9A”. For the same compound, in the data set on zebrafish embryos, the Dead worked out at 8, the “Edemic 1 (E1)” value came out at 0, the “Edemic 2 (E2)” value was 2 and the “Edemic 3 (E3)” value is 26. Besides, in the data set on zebrafish embryos, the “Wild-type (WT)” value is 0.

(Values after patent US10160705B2, “Class of HDAC inhibitors expands the renal progenitor cells population and improves the rate of recovery from acute kidney injury” (University of Pittsburgh—Of the Commonwealth System of …, priority 2011, dated 2018).)
